Ends that are not written are not given here. A value given as a limit tells only on which side of the number the result lay.

In data set [1] the test system is spleen cells stimulated with recombinant NS5. The data set can be described thus: T-cell proliferation assay after genetic immunization. The data set is classed as in vivo, Balb/c mice. As to conditions: co-administration of 5 μg thymosin α1 i.p. twice/week with 50 μg pAp031NS5 DNA vs DNA alone; all three challenge concentrations; [3H]-thymidine incorporation; FIG. 3. The procedure: (§1) To enhance the cellular uptake of plasmid DNA, the quadriceps muscle of Balb/c mice was injected at multiple sites with a total of 100 μL of 0.25% hupivacaine. Four days later, the plasmid constructs were injected into the same region at five different sites in a final volume of 100 μL 0.9% NaCl. Two weeks later the mice were boosted in the opposite leg with plasmid DNA. The mice were killed ten days after the last immunization. There were three groups of mice each containing five animals. Group 1=mice immunized with 100 μg mock DNA; Group 2=mice immunized with 50 μg pAp031NS5 and 50 μg mock DNA; Group 3=mice immunized with 50 μg pAp031 NS5 and 50 μg mock DNA, and received 5 μg thymosin α1 i.p. twice/week. Animals were immunized three times two weeks apart, and studies were performed ten days after the final immunization.
Mice were anesthetized with isoflurane (Aerrane, Anaquest, N.J.), blood was removed by retrobulbar puncture and spleen cells were harvested. Red blood cells were removed by incubation in […] NH4C1/0.17 mol/L Tris (pH 7.4) for 10 minutes at 37° C. […] The [^3H]-thymidine incorporation into DNA was measured after harvesting. […] Incorporation of radioactivity was corrected for background activity (Δ cpm). […]
Background: Uptake of a labelled nucleoside into DNA is a usual measure of proliferation.

In data set [2] the test system is SP2—NS5 cells. The data set can be described thus: Cytotoxicity (CTL) 51Cr-release assay after genetic immunization. The data set is classed as in vivo, Balb/c mice. Particulars: co-administration of 5 μg thymosin α1 i.p. twice/week with 50 μg pAp031NS5 DNA vs DNA alone; L/T ratios 1:10 and 1:100; 4-hour 51Cr-release; FIG. 4. The procedure:
as §1
Spleen cells from immunized mice were suspended in complete DMEM containing 10% FCS and 50 μmol/L 2-mercaptoethanol; the cells were then analyzed for cytotoxic activity 5 days after in vitro stimulation. […] Percent cytotoxicity was calculated as: [formula] […] Total release represents the radioactivity released after total lysis of target cells with 5% TritonX-100. […]
Spontaneous release represents the radioactivity present in medium derived from target cells only. […]

For data set [3] the following is noted: in vivo; cited from earlier work.

For the substance “thymosin α1 (SDAAVDTSSEITTKDLKEKKEVVEEAEN; ends and bridges not checked; UniProt P06454 2-29, looked up) [α thymosin]”, the “increase of CD4 proliferative response” value in data set [1] is recorded as “approximately 100%”. Moreover, in data set [2], the “increase of percent cytotoxicity” value is on record as ≥ 100%. Moreover, the “dose found to be safe for humans” value in data set [3] is ≤ 16 mg/kg body weight/day.

Source of the values: patent US20050054845A1, “Thymosin augmentation of genetic immunization” (Rhode Island Hospital, priority 2001, published 2005).
